Experimental data as given in ChEMBL document CHEMBL1255496, “Pharmacokinetic-pharmacodynamic-model-guided doripenem dosing in critically ill patients” (2010).
In brackets after ≈: the same amount, converted by molar mass.

Assays:
Type in all cases: functional
Escherichia coli [1] = experiment: Antimicrobial activity against Escherichia coli clinical isolates
Klebsiella pneumoniae [2] = experiment: Antimicrobial activity against Klebsiella pneumoniae clinical isolates
Klebsiella oxytoca = experiment: Antimicrobial activity against Klebsiella oxytoca clinical isolates
Citrobacter freundii = experiment: Antimicrobial activity against Citrobacter freundii clinical isolates
Citrobacter koseri = experiment: Antimicrobial activity against Citrobacter koseri clinical isolates
Enterobacter cloacae [3] = experiment: Antimicrobial activity against Enterobacter cloacae clinical isolates
Klebsiella aerogenes = experiment: Antimicrobial activity against Enterobacter aerogenes clinical isolates
Proteus mirabilis [4] = experiment: Antimicrobial activity against Proteus mirabilis clinical isolates
Morganella morganii = experiment: Antimicrobial activity against Morganella morganii clinical isolates
Serratia marcescens = experiment: Antimicrobial activity against Serratia marcescens clinical isolates
Pseudomonas aeruginosa [5] = experiment: Antimicrobial activity against Pseudomonas aeruginosa clinical isolates
Acinetobacter sp. [6] = experiment: Antimicrobial activity against Acinetobacter sp. clinical isolates
Acinetobacter baumannii = experiment: Antimicrobial activity against Acinetobacter baumannii clinical isolates
Burkholderia cepacia = experiment: Antimicrobial activity against Burkholderia cepacia clinical isolates
[7] = system: Stenotrophomonas maltophilia; experiment: Antimicrobial activity against Stenotrophomonas maltophilia clinical isolates
Haemophilus sp. = experiment: Antimicrobial activity against Haemophilus sp. clinical isolates
Enterococcus sp. = experiment: Antimicrobial activity against Enterococcus sp. clinical isolates
Enterococcus faecalis [8] = experiment: Antimicrobial activity against Enterococcus faecalis clinical isolates
Staphylococcus sp. [9] = experiment: Antimicrobial activity against Staphylococcus sp. clinical isolates
Staphylococcus aureus [10] = experiment: Antimicrobial activity against Staphylococcus aureus clinical isolates
Staphylococcus aureus [11] = experiment: Antimicrobial activity against oxacillin-susceptible Staphylococcus aureus clinical isolates
Staphylococcus sp. [12] = experiment: Antimicrobial activity against Coagulase-negative Staphylococcus sp. clinical isolates
Staphylococcus sp. [13] = experiment: Antimicrobial activity against Coagulase-negative oxacillin-susceptible Staphylococcus sp. clinical isolates
Streptococcus pneumoniae [14] = experiment: Antimicrobial activity against Streptococcus pneumoniae clinical isolates
Streptococcus sp. = experiment: Antimicrobial activity against Streptococcus sp. clinical isolates
Enterococcus faecalis [15] = experiment: Antimicrobial activity against Enterococcus faecalis clinical isolate obtained from critically ill patients
Streptococcus pneumoniae [16] = experiment: Antimicrobial activity against Streptococcus pneumoniae clinical isolate obtained from critically ill patients
Staphylococcus aureus [17] = experiment: Antimicrobial activity against methicillin-susceptible Staphylococcus aureus clinical isolate obtained from critically ill patients
Staphylococcus aureus [18] = experiment: Antimicrobial activity against methicillin-resistant Staphylococcus aureus clinical isolate obtained from critically ill patients
Acinetobacter sp. [19] = experiment: Antimicrobial activity against Acinetobacter sp. clinical isolate obtained from critically ill patients
Enterobacter cloacae [20] = experiment: Antimicrobial activity against Enterobacter cloacae clinical isolate obtained from critically ill patients
Escherichia coli [21] = experiment: Antimicrobial activity against Escherichia coli clinical isolate obtained from critically ill patients
Klebsiella pneumoniae [22] = experiment: Antimicrobial activity against Klebsiella pneumoniae clinical isolate obtained from critically ill patients
Haemophilus influenzae = experiment: Antimicrobial activity against Haemophilus influenzae clinical isolate obtained from critically ill patients
Proteus mirabilis [23] = experiment: Antimicrobial activity against Proteus mirabilis clinical isolate obtained from critically ill patients
Pseudomonas aeruginosa [24] = experiment: Antimicrobial activity against Pseudomonas aeruginosa clinical isolate obtained from critically ill patients
Enterobacteriaceae = experiment: Antimicrobial activity against Enterobacteriaceae clinical isolates
[25] = T>MIC in bacilli infected patients with moderate renal impairment at 250 mg administered as 1 hr infusion every 8 hrs
[26] = T>MIC in bacilli infected patients with severe renal impairment at 250 mg administered as 4 hrs infusion every 12 hrs
[27] = T>MIC in bacilli infected patients with renal impairment at 500 mg administered as 1 hr infusion every 8 hrs

Compound `C[C@@H](O)[C@H]1C(=O)N2C(C(=O)O)=C(S[C@@H]3CN[C@H](CNS(N)(=O)=O)C3)[C@H](C)[C@H]12` [DORIPENEM] has an MIC (Escherichia coli [1]) of no more than 0.03 µg/mL, an MIC50 (Escherichia coli [1]) of no more than 0.03 µg/mL and an MIC90 (Escherichia coli [1]) of 0.03 µg/mL (≈ 0.0713 µM). For the same compound, the MIC50 (Klebsiella pneumoniae [2]) was 0.06 µg/mL (≈ 0.143 µM), the MIC90 (Klebsiella pneumoniae [2]) was 0.12 µg/mL (≈ 0.285 µM) and the MIC50 (Klebsiella oxytoca) was 0.06 µg/mL (≈ 0.143 µM). The MIC90 (Klebsiella oxytoca) was 0.06 µg/mL (≈ 0.143 µM), the MIC (Citrobacter freundii) was no more than 0.03 µg/mL and the MIC50 (Citrobacter freundii) was no more than 0.03 µg/mL. The MIC90 (Citrobacter freundii) was 0.06 µg/mL (≈ 0.143 µM), the MIC (Citrobacter koseri) was no more than 0.03 µg/mL and the MIC50 (Citrobacter koseri) was no more than 0.03 µg/mL. It also gave an MIC90 (Citrobacter koseri) of 0.06 µg/mL (≈ 0.143 µM), an MIC50 (Enterobacter cloacae [3]) of 0.06 µg/mL (≈ 0.143 µM) and an MIC90 (Enterobacter cloacae [3]) of 0.5 µg/mL (≈ 1.19 µM). It also gave an MIC50 (Klebsiella aerogenes) of 0.06 µg/mL (≈ 0.143 µM), an MIC90 (Klebsiella aerogenes) of 0.12 µg/mL (≈ 0.285 µM) and an MIC50 (Proteus mirabilis [4]) of 0.25 µg/mL (≈ 0.595 µM). The MIC90 (Proteus mirabilis [4]) was 0.5 µg/mL (≈ 1.19 µM), the MIC50 (Morganella morganii) was 0.25 µg/mL (≈ 0.595 µM) and the MIC90 (Morganella morganii) was 1 µg/mL (≈ 2.38 µM). The MIC50 (Serratia marcescens) was 0.12 µg/mL (≈ 0.285 µM), the MIC90 (Serratia marcescens) was 0.25 µg/mL (≈ 0.595 µM) and the MIC50 (Pseudomonas aeruginosa [5]) was 0.5 µg/mL (≈ 1.19 µM). For the same compound, the MIC90 (Pseudomonas aeruginosa [5]) was 4 µg/mL (≈ 9.51 µM), the MIC50 (Acinetobacter sp. [6]) was 0.5 µg/mL (≈ 1.19 µM) and the MIC90 (Acinetobacter sp. [6]) was 32 µg/mL (≈ 76.1 µM). The MIC50 (Acinetobacter baumannii) was 1 µg/mL (≈ 2.38 µM), the MIC90 (Acinetobacter baumannii) was 32 µg/mL (≈ 76.1 µM) and the MIC (Burkholderia cepacia) was 2 µg/mL (≈ 4.76 µM). For the same compound, the MIC50 [7] was 64 µg/mL (≈ 152 µM), the MIC90 [7] was greater than 128 µg/mL and the MIC50 (Haemophilus sp.) was 0.06 µg/mL (≈ 0.143 µM). The MIC90 (Haemophilus sp.) was 0.25 µg/mL (≈ 0.595 µM), the MIC50 (Enterococcus sp.) was 4 µg/mL (≈ 9.51 µM) and the MIC90 (Enterococcus sp.) was 32 µg/mL (≈ 76.1 µM). It also gave an MIC50 (Enterococcus faecalis [8]) of 4 µg/mL (≈ 9.51 µM), an MIC90 (Enterococcus faecalis [8]) of 4 µg/mL (≈ 9.51 µM) and an MIC50 (Staphylococcus sp. [9]) of no more than 0.03 µg/mL. It also gave an MIC90 (Staphylococcus sp. [9]) of 16 µg/mL (≈ 38 µM), an MIC50 (Staphylococcus aureus [10]) of no more than 0.03 µg/mL and an MIC90 (Staphylococcus aureus [10]) of 16 µg/mL (≈ 38 µM). For the same compound, the MIC (Staphylococcus aureus [11]) was no more than 0.03 µg/mL, the MIC50 (Staphylococcus aureus [11]) was no more than 0.03 µg/mL and the MIC90 (Staphylococcus aureus [11]) was 0.06 µg/mL (≈ 0.143 µM). For the same compound, the MIC50 (Staphylococcus sp. [12]) was 0.06 µg/mL (≈ 0.143 µM), the MIC90 (Staphylococcus sp. [12]) was 16 µg/mL (≈ 38 µM) and the MIC (Staphylococcus sp. [13]) was no more than 0.03 µg/mL. It also gave an MIC50 (Staphylococcus sp. [13]) of no more than 0.03 µg/mL, an MIC90 (Staphylococcus sp. [13]) of 0.25 µg/mL (≈ 0.595 µM) and an MIC (Streptococcus pneumoniae [14]) of no more than 0.03 µg/mL. For the same compound, the MIC50 (Streptococcus pneumoniae [14]) was no more than 0.03 µg/mL, the MIC90 (Streptococcus pneumoniae [14]) was 0.5 µg/mL (≈ 1.19 µM) and the MIC (Streptococcus sp.) was no more than 0.03 µg/mL. It also gave an MIC50 (Streptococcus sp.) of no more than 0.03 µg/mL, an MIC90 (Streptococcus sp.) of 0.06 µg/mL (≈ 0.143 µM) and an MIC50 (Enterococcus faecalis [15]) of 4 µg/mL (≈ 9.51 µM). It also gave an MIC90 (Enterococcus faecalis [15]) of 4 µg/mL (≈ 9.51 µM), an MIC (Streptococcus pneumoniae [16]) of no more than 0.015 µg/mL and an MIC50 (Streptococcus pneumoniae [16]) of no more than 0.015 µg/mL. For the same compound, the MIC90 (Streptococcus pneumoniae [16]) was 0.5 µg/mL (≈ 1.19 µM), the MIC50 (Staphylococcus aureus [17]) was 0.03 µg/mL (≈ 0.0713 µM) and the MIC90 (Staphylococcus aureus [17]) was 0.06 µg/mL (≈ 0.143 µM). The MIC50 (Staphylococcus aureus [18]) was 1 µg/mL (≈ 2.38 µM), the MIC90 (Staphylococcus aureus [18]) was 16 µg/mL (≈ 38 µM) and the MIC50 (Acinetobacter sp. [19]) was 16 µg/mL (≈ 38 µM). For the same compound, the MIC90 (Acinetobacter sp. [19]) was greater than 32 µg/mL, the MIC50 (Enterobacter cloacae [20]) was 0.06 µg/mL (≈ 0.143 µM) and the MIC90 (Enterobacter cloacae [20]) was 0.12 µg/mL (≈ 0.285 µM). The MIC50 (Escherichia coli [21]) was 0.03 µg/mL (≈ 0.0713 µM), the MIC90 (Escherichia coli [21]) was 0.06 µg/mL (≈ 0.143 µM) and the MIC50 (Klebsiella pneumoniae [22]) was 0.06 µg/mL (≈ 0.143 µM). For the same compound, the MIC90 (Klebsiella pneumoniae [22]) was 0.25 µg/mL (≈ 0.595 µM), the MIC50 (Haemophilus influenzae) was 0.12 µg/mL (≈ 0.285 µM) and the MIC90 (Haemophilus influenzae) was 0.5 µg/mL (≈ 1.19 µM). For the same compound, the MIC50 (Proteus mirabilis [23]) was 0.25 µg/mL (≈ 0.595 µM), the MIC90 (Proteus mirabilis [23]) was 1 µg/mL (≈ 2.38 µM) and the MIC50 (Pseudomonas aeruginosa [24]) was 0.5 µg/mL (≈ 1.19 µM). The MIC90 (Pseudomonas aeruginosa [24]) was 8 µg/mL (≈ 19 µM), the MIC (Enterobacteriaceae) was no more than 0.03 µg/mL and the MIC50 (Enterobacteriaceae) was no more than 0.03 µg/mL. For the same compound, the MIC90 (Enterobacteriaceae) was 0.12 µg/mL (≈ 0.285 µM), the “fT>MIC” value [25] was 35% and the “fT>MIC” value [26] was 35%. The “fT>MIC” value [27] was 35%.
